# According to patent US20150030561A1, “Use of CXCR4 Antagonists” (GENZYME CORP., priority 2011, published 2015):
# Where two headings read alike, the source gives them in different places.
# Assays:
# [1] = system: patients with myelokathexis attributable to mutations of CXCR4
# Method: […] intrapatient escalating dose levels, 20 mcg/kg, 40 mcg/kg, 80 mcg/kg, and 240 mcg/kg were exam in d. The subjects were patients at the University of Washington General Clinical Research Center for up to 10 days; the study requires the subject to be available for up to 14 days.
# Complete blood counts were determined at 1, 3, 6, 9 and 24 hours with an automated counter and leukocyte differential counts confirmed manually. CD34^+ cells and lymphocyte subtypes were measured by FACS before and 6 hours after the 0.08 mg/kg dose.
# [2] = literature (Liles 2003; DiPersio 2009); cited from earlier work
smiles,measurement,setting,value
c1cc(CN2CCCNCCNCCCNCC2)ccc1CN1CCCNCCNCCCNCC1 [plerixafor],"hematocrit, hemoglobin and platelet counts","[1]; 10 day testing period, except one patient with severe iron deficiency anemia",stable
same,leukocyte response,[1]; all 6 patients,prompt leukocytosis
same,blood neutrophils 24 hours after dose,"[1]; another patient, 0.24 mg/kg dose",2e+09 L⁻¹
same,"fold increase, peak neutrophil response",[1]; controls (normal subjects similarly treated),4.4 fold
same,blood neutrophils 24 hours after dose,"[1]; one patient, 0.16 mg/kg dose",greater than 2.0 ×10^9/L
same,peak blood neutrophils (group mean of highest observed values),"[1]; patient group, single s.c. doses 0.02 to 0.24 mg/kg, mean baseline 0.4±0.1×10^9/L",4.5±0.78 ×10^9/L
same,absolute lymphocyte count increase from baseline to peak levels,[1]; patients,approximately 14 fold
same,absolute lymphocyte counts versus normal levels,[1]; patients,transiently reached normal levels
same,"fold increase, peak neutrophil response",[1]; patients,8.2 fold
same,CD34+ cells increase,"[1]; patients, 0.08 mg/kg dose, FACS before and 6 hours after",~6 fold
same,effect on neutropenia and lymphocytopenia,"[1]; patients, s.c. single doses",transiently correct neutropenia and lymphocytopenia
same,effect on circulating CD34+ cells,[2],increases circulating CD34^+ cells
same,leukocyte effect of subcutaneous administration,[2],dose-dependent leukocytosis
